Active and inactive are the calls of the source.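 Rule for the calls: active = compounds giving half or more protection of infected cells from virus-caused growth loss, again on retest; inactive = the rest.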 Where a SMILES comes first, the peptide text is derived from it. The star is where a group is joined. Boc = CC(C)(C)OC(=O)*
Test system: CEM cells HIV-1 protection, formazan growth assay
Assay: NCI AIDS Antiviral Assay
Conditions: for IC50: measured here: growth of uninfected CEM cells
How it was run: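 Steps: treat uninfected and HIV-1-infected human CEM cells at five drug levels; quantify growth by soluble formazan; retest any compound reaching 50% protection; classify actives from the retest.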

SMILES	EC50	IC50	outcome
N#Cc1c(-c2ccc(Cl)cc2Cl)nc2[nH][nH]c(=S)n2c1=O	> 100 µM	> 100 µM	–
CCOC(=O)/C(=C\c1ccc(O)c(OC)c1)C(=O)c1ccccc1	> 288 µM	41.7 µM	–
Cc1nc(-c2ccc(Cl)cc2)cn2c1nc1ccccc12	61.7 µM	191 µM	–
CC(=O)OC1COC(Nn2c(=O)[nH]c3ccccc3c2=O)C(OC(C)=O)C1OC(C)=O (centres undefined)	> 200 µM	> 200 µM	–
Nc1[nH]c(=O)[nH]c(=O)c1N=O	> 200 µM	> 200 µM	–
Cc1cccc2c1CC1(C2)Cc2c(C)cccc2C1=O (centres undefined)	> 200 µM	37.2 µM	–
COc1ccccc1C=C1C(=O)OC(C)(C)OC1=O	–	–	inactive
CCOC(=O)C1(NC(=O)OC(C)(C)C)CCc2[nH]oc(=O)c2C1 (centres undefined)	> 200 µM	> 200 µM	–
CCOC(=O)N1CCC2(CC1)C[C@](Sc1ccccc1)(C(C)=O)[C@H](C)O2	> 200 µM	> 200 µM	–
CN(C)c1cc(CN[C@@H](Cc2cn(C(c3ccccc3)(c3ccccc3)c3ccccc3)cn2)C(=O)O)nc(CN[C@@H](Cc2cn(C(c3ccccc3)(c3ccccc3)c3ccccc3)cn2)C(=O)O)c1	> 100 µM	19.5 µM	–
CCC(COC(=O)CC[C@@H](NC(=O)C(C)NC(=O)C(C)OC1C(O)C(CO)OC(OCc2ccccc2)C1NC(C)=O)C(N)=O)NC1c2ccccc2Nc2cccc([N+](=O)[O-])c21 (some centres undefined)	> 200 µM	145 µM	–
O=C1[C@H]2ON(c3ccccc3)C(c3ccccc3Cl)[C@H]2C(=O)N1c1ccc(Cc2ccc(N3C(=O)[C@@H]4ON(c5ccccc5)C(c5ccccc5Cl)[C@@H]4C3=O)cc2)cc1 (some centres undefined)	> 8.71 µM	> 8.71 µM	–
CC(NS(C)(=O)=O)c1ccccc1 (centres undefined)	> 200 µM	> 200 µM	–
CC(C)(CCNc1c2ccccc2nc2cccc([N+](=O)[O-])c12)[N+](C)(C)[O-]	> 0.2 µM	0.12 µM	–
CC(C)(CN1CCCCC1)C(=O)/C=C/c1ccccc1	> 141 µM	69.2 µM	–
Cc1nc2cncnc2n(CCN2CCOCC2)c1=O	> 200 µM	46.8 µM	–
CCOC(=O)c1c(SCC#N)n(-c2ccccc2)c(=S)n(-c2ccccc2)c1=O	> 200 µM	13.8 µM	–
CCCC(CCN)(CCN)[N+](=O)[O-]	> 200 µM	> 200 µM	–
CCOC(=O)/C(O)=C1\C(=O)N(C)C(=O)C1c1ccc(OC)c(OC)c1 (centres undefined)	–	–	inactive
CC(C)(C)OC(=O)NC(Cc1cc(C(C)(C)C)c(O)c(C(C)(C)C)c1)C(=O)O (centres undefined)	> 200 µM	61.7 µM	–
N#CC(C#N)SCc1ccccc1	–	–	inactive

SMILES	EC50	IC50	outcome
COc1cc(C2C(Cl)C(=O)N2NC(=O)c2ccc(N)cc2)ccc1O (centres undefined)	> 200 µM	53.7 µM	–
CN(C)Cc1cc(CN(C)C)cc(CN(C)C)c1	> 200 µM	> 200 µM	–
Cc1ccc2c(c1)[nH]c(=S)n2/C=C(\c1ccccc1)S(=O)Cc1ccccc1 (centres undefined)	> 200 µM	> 200 µM	–
O=C(NCCCNC(=O)c1ccc2cc(O)c(O)cc2c1)c1ccc2cc(O)c(O)cc2c1	–	–	inactive
CN1CCc2cc(O)c3cc2C1Cc1ccc(cc1)Oc1cc(ccc1O)CC1c2c(cc4c(c2O3)OCO4)CCN1C (centres undefined)	–	–	inactive
CC1(C)N=C(/C(C#N)=[N+](/[O-])C(=O)c2ccccc2)C(C)(C)N1O	> 200 µM	> 200 µM	–
NS(=O)(=O)c1ccc(NC(=O)Nc2cc(C(F)(F)F)ccc2Cl)cc1	> 200 µM	10.2 µM	–
O=c1[nH]c2nccnc2c2c([N+](=O)[O-])cccc12	> 200 µM	> 200 µM	–
Cc1c2c(cc3c1OCN(Cc1ccccc1)C3)CN(Cc1ccccc1)CO2	> 200 µM	30.9 µM	–
O=C1C=C(c2ccccc2)C2(c3ccccc3)C1C1C(c3ccccc3)=C(c3ccccc3)C2C12SCCS2 (centres undefined)	> 200 µM	3.39 µM	–
Cc1cc(C#N)c(Nc2ccccc2[N+](=O)[O-])s1	> 200 µM	42.7 µM	–
c1ccc(-c2nc3sc(-c4ccccc4)nc3s2)cc1	> 200 µM	> 200 µM	–
N#Cc1nc(CCc2nc(C#N)c(N)o2)oc1N	> 200 µM	> 200 µM	–
COc1ccc(C[C@H]2COC(=O)[C@@H]2Cc2ccc(OC)c(OC)c2)cc1OC	> 200 µM	123 µM	–
O=S(=O)(Sc1ccc(Cl)cc1)c1ccc(Cl)cc1	> 20 µM	4.27 µM	–
COc1cc2c(c(OC)c1OC)-c1ccc(SC)c(=O)cc1[C@@H](NC(=O)C(F)(F)F)CC2	> 75.9 µM	0.0245 µM	–
O=[N+]([O-])c1c(Br)cc(Br)c2c1Nc1c(ccc(Cl)c1Cl)S2	> 200 µM	4.9 µM	–
CCOC(=O)c1c(N)ssc1=S	87.1 µM	158 µM	–
O=C1/C(=C/c2cccs2)NC(=S)N1CN1CCCCC1	> 200 µM	33.1 µM	–
CC(NC(=O)C(C)C(=O)Nc1ccc(C(F)(F)F)cc1)C(N)=O (centres undefined)	> 200 µM	> 200 µM	–
COc1cc2c(cc1OC)C1Cc3cc(OC)c(OC)cc3N1CC2 (centres undefined)	> 29.5 µM	9.12 µM	–

SMILES	EC50	IC50	outcome
C[C@H]1[C@H](C)CC[C@]2(C(=O)O)CCC3(COC(=O)/C=C/c4ccc(O)cc4)C(=CCC4[C@@]5(C)CC[C@H](O)C(C)(C)C5CC[C@]43C)[C@H]12 (some centres undefined)	> 11.5 µM	5.37 µM	–
CC1=CC(O)(c2ccccn2)P(=O)(c2ccccc2)C=C1C (centres undefined)	> 794 µM	> 794 µM	–
CCC1(N=[N+]=[N-])C(=O)c2ccccc2N(C)C1=O (centres undefined)	> 200 µM	> 200 µM	–
CC(CC(=O)N[C@H](C[C@@H](C)C(Cl)(Cl)Cl)c1nccs1)C(Cl)(Cl)Cl (some centres undefined)	–	–	active
CCOC(=O)/C(=C\c1ccc(C)o1)P(=O)(OCC)OCC	> 794 µM	> 100 µM	–
O=C(NC1CCCCC1NC(c1ccccc1)(c1ccccc1)c1ccccc1)C(=O)NC1CCCCC1NC(c1ccccc1)(c1ccccc1)c1ccccc1 (centres undefined)	> 100 µM	> 100 µM	–
CN/N=C(/CCN1CCCC1)CC(c1ccccc1)c1c(O)c2ccccc2oc1=O (centres undefined)	> 93.3 µM	74.1 µM	–
CC(NCc1c(O)ccc2c(-c3ccccc3)cc(=O)oc12)C(=O)O (centres undefined)	> 200 µM	> 200 µM	–
COC(=O)C(Cc1c(-c2[nH]c3ccccc3c2CC(NC(C)=O)C(=O)OC)[nH]c2ccccc12)NC(C)=O (centres undefined)	> 200 µM	> 200 µM	–
Nc1nc(Cl)c2ncn(C3CC=C(CO)CC3)c2n1 (centres undefined)	> 891 µM	51.3 µM	–
CC1=C(C(=O)CC(=O)C(=O)Nc2ccc(C)c(C)c2)Sc2ccccc2N1	> 6.92 µM	> 6.92 µM	–
CN1CCCC(C#N)(c2ccccc2)CC1 (centres undefined)	–	–	inactive
COc1ccc(/C(C)=C2\CCCN(Cc3ccccc3)C2)cc1	> 200 µM	30.9 µM	–
Cc1cn(CC(=O)NCCCO)c(=O)[nH]c1=O	> 200 µM	> 200 µM	–
O=c1[nH]c(Nc2nc3ccccc3[nH]2)nc(O)c1Cc1ccccc1	> 151 µM	> 151 µM	–
CC(C)Sc1nc(C#N)cc2c1CCCC2	> 200 µM	57.5 µM	–
CC(C)N1CCOC(c2ccc(O)c(O)c2)C1 (centres undefined)	> 200 µM	95.5 µM	–
CC(C)(NC(=O)c1ccccc1SC(=O)CCCC[n+]1ccccc1)C(N)=O	1 µM	50.1 µM	–
Cc1cc(-c2ccccc2)nc(Nc2cc3ccccc3[nH]2)n1	> 603 µM	> 603 µM	–
CCC(C)C(NC(=O)C(CC(C)C)NC(=O)CNC(=O)C(CC(N)=O)NC(=O)C(CC(=O)O)NC(=O)C(N)CC(C)C)C(=O)NC(CC(C)C)C(=O)NC(C)C(=O)NC(Cc1ccc(O)cc1)C(=O)O (centres undefined) (H-LDNGLILAY-OH; configuration not given here)	> 50.1 µM	> 50.1 µM	–
O=[N+]([O-])c1cc(C(F)(F)F)cc2n[se]nc12	–	–	inactive

SMILES	EC50	IC50	outcome
COc1ccc(-c2cc3cc(Cl)cc(Cl)c3oc2=O)cc1OC	> 200 µM	186 µM	–
O=C(O)c1ccc(P(=O)(O)c2ccc(C(=O)O)cc2Br)c(Br)c1	> 200 µM	> 200 µM	–
Clc1ccc(C[P+](c2ccccc2)(c2ccccc2)c2ccccc2)c(Cl)c1	> 200 µM	1.48 µM	–
C=C(Br)CC12CC3(CCC1c1ccc(OC)cc1C2=O)OCCO3 (centres undefined)	> 110 µM	> 110 µM	–
COC(=O)CCCC=C(c1cc(Br)c(OC)c(C(F)(F)F)c1)c1cc(Br)c(OC)c(C(F)(F)F)c1	> 200 µM	40.7 µM	–
CN1C(=O)CNS1(=O)=O	–	–	inactive
O=c1c(SSc2coc3cc(F)ccc3c2=O)coc2cc(F)ccc12	> 200 µM	2.75 µM	–
O=C(NC(CO)C(=O)N[C@H]1c2ccsc2C(=O)[C@H]1O)OCc1ccccc1 (some centres undefined)	–	–	inactive
Cc1cccc(N2C(=O)/C(=C/c3ccc(N(CCC#N)CCC#N)cc3C)N=C2c2cc([N+](=O)[O-])ccc2Cl)c1	–	–	inactive
CCOC(=O)N/N=C(/N)Cc1ccccc1	> 200 µM	> 200 µM	–
Cn1c(=O)oc2cc(C(O)CN3CCN(Cc4ccc5c(c4)OCO5)CC3)ccc21 (centres undefined)	> 200 µM	> 200 µM	–
CCOC(=O)C1C/C(=N\OC(C)=O)c2ccc(OC)c(OC)c2C1 (centres undefined)	–	–	inactive
COc1cc(C(O)(CC#N)c2cc3c(cc2Br)OCO3)cc(OC)c1OC (centres undefined)	> 200 µM	10 µM	–
CC(NC(=O)C(NC(=O)OC(C)(C)C)C(C)C)C(=O)N1CCCC1C(=O)O (stereo not drawn) (Boc-Val-Ala-Pro-OH; configuration not given here)	> 200 µM	> 200 µM	–
CC1C2=C(CC(C)(C)CC2=O)NC2=C1C(=O)CC(C)(C)C2	> 200 µM	166 µM	–
CCOC1NC(=O)NC(=O)C1(C)Cl (centres undefined)	> 200 µM	> 200 µM	–
O=c1[nH][nH]c(=O)c2nc3c(nc12)c1nc2c(=O)[nH][nH]c(=O)c2nc1c1nc2c(=O)[nH][nH]c(=O)c2nc31	–	–	inactive
O=C(Cc1nc2sc3c(c2c(=O)[nH]1)CCCC3)Nc1ccccc1	–	–	inactive
COC(=O)c1cccc2cccc(C(=O)Nc3ccc(C)cc3C)c12	> 2.24 µM	> 2.24 µM	–
COc1ccc(CCN2CCc3c(C)c(C#N)c4nc5ccccc5n4c32)cc1OC	> 200 µM	53.7 µM	–
CSc1nc2c(c(=O)n1C)N=C(c1ccc(Cl)cc1)CC(c1ccccc1)N2 (centres undefined)	> 200 µM	18.2 µM	–

Source: PubChem BioAssay AID179 (DTP/NCI, 2004)
